Data reported in patent publication US20260262643A1, “HERBICIDAL BENZOXAZINES” (FMC CORPORATION, priority 2022, published 2026).

How the values were obtained:
pigweed, palmer [1] = test: Test A postemergence; type: in vivo, Amaranthus palmeri; details: postemergence, 10 days
How it was run: (§1)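 Plants were grown in loam and sand and treated preemergence or postemergence (one- to two-leaf stage, 2–10 cm) with compound in solvent plus surfactant. Response was scored against untreated controls after 10 greenhouse days, where 0 means no effect and 100 complete control.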

corn [2] = test: Test A postemergence; type: in vivo, Zea mays; details: postemergence, 10 days
How it was run: as §1

barnyardgrass [3] = test: Test A preemergence; type: in vivo, Echinochloa crusgalli; details: visual injury after 10 days, 0 to 100 scale, 0 is no effect, 100 is complete control
How it was run: as §1

sedge, umbrella = test: Test B flooded paddy test; type: in vivo, Cyperus difformis; details: 250 g ai/ha, Flood, 13 days, 0 to 100 scale (0 no effect, 100 complete control)
How it was run: (§2)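 Species grown to 2-leaf stage; pots flooded 3 cm above soil and compound applied directly to paddy water, depth maintained throughout. After 13 days in greenhouse, plants visually rated against controls on 0–100 scale (0 no effect, 100 complete control); dash means no result.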

barnyardgrass [4] = test: Test A postemergence; type: in vivo, Echinochloa crusgalli; details: postemergence, 10 days
How it was run: as §1

corn [5] = test: Test A preemergence; type: in vivo, Zea mays; details: visual injury after 10 days, 0 to 100 scale, 0 is no effect, 100 is complete control
How it was run: as §1

foxtail, giant [6] = test: Test A preemergence; type: in vivo, Setaria faberi; details: visual injury after 10 days, 0 to 100 scale, 0 is no effect, 100 is complete control
How it was run: as §1

wheat [7] = test: Test A preemergence; type: in vivo, Triticum aestivum; details: visual injury after 10 days, 0 to 100 scale, 0 is no effect, 100 is complete control
How it was run: as §1

ragweed [8] = test: Test A postemergence; type: in vivo, Ambrosia artemisiifolia; details: postemergence, 10 days
How it was run: as §1

oat, wild [9] = test: Test A preemergence; type: in vivo, Avena fatua; details: visual injury after 10 days, 0 to 100 scale, 0 is no effect, 100 is complete control
How it was run: as §1

ragweed [10] = test: Test A preemergence; type: in vivo, Ambrosia artemisiifolia; details: visual injury after 10 days, 0 to 100 scale, 0 is no effect, 100 is complete control
How it was run: as §1

kochia [11] = test: Test A postemergence; type: in vivo, Bassia scoparia; details: postemergence, 10 days
How it was run: as §1

ryegrass, Italian [12] = test: Test A postemergence; type: in vivo, Lolium multiflorum; details: postemergence, 10 days
How it was run: as §1

galium = test: Test A postemergence; type: in vivo, Galium aparine; details: postemergence, 10 days
How it was run: as §1

soybean [13] = test: Test A preemergence; type: in vivo, Glycine max; details: visual injury after 10 days, 0 to 100 scale, 0 is no effect, 100 is complete control
How it was run: as §1

kochia [14] = test: Test A preemergence; type: in vivo, Bassia scoparia; details: visual injury after 10 days, 0 to 100 scale, 0 is no effect, 100 is complete control
How it was run: as §1

oat, wild [15] = test: Test A postemergence; type: in vivo, Avena fatua; details: postemergence, 10 days
How it was run: as §1

barnyardgrass [16] = test: Test B flooded paddy test; type: in vivo, Echinochloa crus-galli; details: 250 g ai/ha, Flood, 13 days, 0 to 100 scale (0 no effect, 100 complete control)
How it was run: as §2

ducksalad = test: Test B flooded paddy test; type: in vivo, Heteranthera limosa; details: 250 g ai/ha, Flood, 13 days, 0 to 100 scale (0 no effect, 100 complete control)
How it was run: as §2

blackgrass [17] = test: Test A preemergence; type: in vivo, Alopecurus myosuroides; details: visual injury after 10 days, 0 to 100 scale, 0 is no effect, 100 is complete control
How it was run: as §1

horseweed = test: Test A postemergence; type: in vivo, Erigeron canadensis; details: postemergence, 10 days
How it was run: as §1

wheat [18] = test: Test A postemergence; type: in vivo, Triticum aestivum; details: postemergence, 10 days
How it was run: as §1

soybean [19] = test: Test A postemergence; type: in vivo, Glycine max; details: 500 g ai/ha, postemergence, 10 days, visual injury, 0 to 100 scale (0 no effect, 100 complete control)
How it was run: as §1

pigweed, palmer [20] = test: Test A preemergence; type: in vivo, Amaranthus palmeri; details: visual injury after 10 days, 0 to 100 scale, 0 is no effect, 100 is complete control
How it was run: as §1

rice = test: Test B flooded paddy test; type: in vivo, Oryza sativa; details: 250 g ai/ha, Flood, 13 days, 0 to 100 scale (0 no effect, 100 complete control)
How it was run: as §2

blackgrass [21] = test: Test A postemergence; type: in vivo, Alopecurus myosuroides; details: postemergence, 10 days
How it was run: as §1

ryegrass, Italian [22] = test: Test A preemergence; type: in vivo, Lolium multiflorum; details: visual injury after 10 days, 0 to 100 scale, 0 is no effect, 100 is complete control
How it was run: as §1

foxtail, giant [23] = test: Test A postemergence; type: in vivo, Setaria faberi; details: postemergence, 10 days
How it was run: as §1

[24] = 125 g ai/ha, 0 to 100 scale, 0 no effect, 100 complete control
[25] = 500 g ai/ha, visual injury, 0 to 100 scale (0 no effect, 100 complete control)

CC(C)c1ncn(-c2ccc(OC(F)(F)F)c(C(=O)N3C[C@H](C)Oc4c(Cl)cccc43)c2)n1 [Compound 111]
Pigweed, Palmer plant response rating (pigweed, palmer [1]; [24]): 70 | Plant response rating, Pigweed, Palmer (pigweed, palmer [1]; [25]): 90 | Corn plant response rating (corn [2]; [24]): 40 | Plant response rating, Corn (corn [2]; [25]): 80 | Plant response rating, Barnyardgrass (barnyardgrass [3]; 125 g ai/ha): 90 | Plant response rating, Barnyardgrass (barnyardgrass [3]; 500 g ai/ha): 100 | Plant response rating, Sedge, Umbrella (sedge, umbrella): 98 | Barnyardgrass plant response rating (barnyardgrass [4]; [24]): 30 | Plant response rating, Barnyardgrass (barnyardgrass [4]; [25]): 80 | Plant response rating, Corn (corn [5]; 125 g ai/ha): 30 | Plant response rating, Corn (corn [5]; 500 g ai/ha): 40 | Plant response rating, Foxtail, Giant (foxtail, giant [6]; 125 g ai/ha): 100 | Plant response rating, Foxtail, Giant (foxtail, giant [6]; 500 g ai/ha): 100 | Plant response rating, Wheat (wheat [7]; 125 g ai/ha): 60 | Plant response rating, Wheat (wheat [7]; 500 g ai/ha): 90 | Ragweed plant response rating (ragweed [8]; [24]): 60 | Plant response rating, Ragweed (ragweed [8]; [25]): 70 | Plant response rating, Oat, Wild (oat, wild [9]; 125 g ai/ha): 70 | Plant response rating, Oat, Wild (oat, wild [9]; 500 g ai/ha): 90 | Plant response rating, Ragweed (ragweed [10]; 125 g ai/ha): 20 | Plant response rating, Ragweed (ragweed [10]; 500 g ai/ha): 90 | Kochia plant response rating (kochia [11]; [24]): 80 | Plant response rating, Kochia (kochia [11]; [25]): 100 | Ryegrass, Italian plant response rating (ryegrass, Italian [12]; [24]): 30 | Plant response rating, Ryegrass, Italian (ryegrass, Italian [12]; [25]): 60 | Galium plant response rating (galium; [24]): 100 | Plant response rating, Galium (galium; [25]): 100 | Plant response rating, Soybean (soybean [13]; 125 g ai/ha): 70 | Plant response rating, Soybean (soybean [13]; 500 g ai/ha): 100 | Plant response rating, Kochia (kochia [14]; 125 g ai/ha): 80 | Plant response rating, Kochia (kochia [14]; 500 g ai/ha): 90 | Oat, Wild plant response rating (oat, wild [15]; [24]): 40 | Plant response rating, Oat, Wild (oat, wild [15]; [25]): 50 | Plant response rating, Barnyardgrass (barnyardgrass [16]): 55 | Plant response rating, Ducksalad (ducksalad): 65 | Plant response rating, Blackgrass (blackgrass [17]; 125 g ai/ha): 30 | Plant response rating, Blackgrass (blackgrass [17]; 500 g ai/ha): 70 | Horseweed plant response rating (horseweed; [24]): 10 | Plant response rating, Horseweed (horseweed; [25]): 50 | Wheat plant response rating (wheat [18]; [24]): 10 | Plant response rating, Wheat (wheat [18]; [25]): 40 | Plant response rating, Soybean (soybean [19]): 100 | Plant response rating, Pigweed, Palmer (pigweed, palmer [20]; 125 g ai/ha): 90 | Plant response rating, Pigweed, Palmer (pigweed, palmer [20]; 500 g ai/ha): 100 | Plant response rating, Rice (rice): 0 | Blackgrass plant response rating (blackgrass [21]; [24]): 40 | Plant response rating, Blackgrass (blackgrass [21]; [25]): 50 | Plant response rating, Ryegrass, Italian (ryegrass, Italian [22]; 125 g ai/ha): 70 | Plant response rating, Ryegrass, Italian (ryegrass, Italian [22]; 500 g ai/ha): 100 | Foxtail, Giant plant response rating (foxtail, giant [23]; [24]): 90 | Plant response rating, Foxtail, Giant (foxtail, giant [23]; [25]): 90
